Measured values from US20260102359A1, “COMBINATION TREATMENT OF DERMAL AND TRANSDERMAL FIBROTIC DISEASES, DISORDERS AND ASSOCIATED PAIN AND INFLAMMATION” (ERESINA, LLC, priority 2022, published 2026).
Where a name gives a salt, the structure may show the parent alone.

Tested on: hDMFa myofibroblast cells

Row | Structure (SMILES) | Compound Myofibroblast Cytotoxicity Activity
1 | CC(=O)OC(C)C[N+](C)(C)C (stereo not drawn) [Cmpd 655, Methacholine chloride] | ++
2 | COc1cccc(OC)c1C(=O)N[C@@H]1C(=O)N2[C@@H]1SC(C)(C)[C@@H]2C(=O)O [Cmpd 656, Methicillin (sodium salt)] | ++
3 | CSCC[C@H](N)C(=O)O [Cmpd 657, Methionine] | ++
4 | CN(Cc1cnc2nc(N)nc(N)c2n1)c1ccc(C(=O)N[C@@H](CCC(=O)[O-])C(=O)[O-])cc1.[Na+].[Na+] [Cmpd 658, Methotrexate disodium] | ++
5 | COC(=O)c1ccccc1O [Cmpd 659, Methyl salicylate] | ++
6 | CS(C)(=O)=O [Cmpd 660, Methyl Sulfonyl Methane (MSM)] | +
7 | C/C1=C2/[N-][C@H]([C@H](CC(N)=O)[C@@]2(C)CCC(=O)NC[C@@H](C)OP(=O)([O-])O[C@H]2[C@@H](O)[C@@H](n3cnc4cc(C)c(C)cc43)O[C@@H]2CO)[C@]2(C)N=C(/C(C)=C3N=C(/C=C4N=C1[C@@H](CCC(N)=O)C\4(C)C)[C@@H](CCC(N)=O)[C@]\3(C)CC(N)=O)[C@@H](CCC(N)=O)[C@]2(C)CC(N)=O.[CH3-].[Co+3] [Cmpd 662, Methylcobalamin] | ++
8 | CN(C)c1ccc2nc3ccc(=[N+](C)C)cc-3sc2c1 [Cmpd 663, Methylene Blue] | +++++
9 | COC(=O)c1ccc(O)cc1 [Cmpd 664, Methylparaben] | ++
10 | COCCc1ccc(OCC(O)CNC(C)C)cc1 (stereo not drawn) [Cmpd 665, Metoprolol Tartrate] | ++
11 | CC(C)(C(=O)c1cccnc1)c1cccnc1 [Cmpd 667, Metyrapone] | ++
12 | CC[C@H](C)C(=O)O[C@H]1CCC=C2C=C[C@H](C)[C@H](CC[C@@H]3C[C@@H](O)CC(=O)O3)[C@H]21 [Cmpd 668, Mevastatin] | +++
13 | Clc1ccc(COC(Cn2ccnc2)c2ccc(Cl)cc2Cl)c(Cl)c1 (stereo not drawn) [Cmpd 671, Miconazole] | +++
14 | Clc1ccc(COC(Cn2ccnc2)c2ccc(Cl)cc2Cl)c(Cl)c1 (stereo not drawn) [Cmpd 672, Miconazole Nitrate] | +++
15 | COc1ccc(OC)c(C(O)CNC(=O)CN)c1 (stereo not drawn) [Cmpd 673, Midodrine (hydrochloride)] | ++++
16 | CO[C@@H]1[C@H](N(C)C(=O)c2ccccc2)C[C@H]2O[C@]1(C)n1c3ccccc3c3c4c(c5c6ccccc6n2c5c31)C(=O)NC4 [Cmpd 674, Midostaurin (PKC412)] | ++
17 | CCN(CC)C(=O)C1(c2ccccc2)CC1CN (stereo not drawn) [Cmpd 676, Milnacipran HCl] | ++++
18 | CCCCCCCCCCCCCCCCOP(=O)([O-])OCC[N+](C)(C)C [Cmpd 677, Miltefosine] | +++++
19 | N=c1nc(N2CCCCC2)cc(N)n1OS(=O)(=O)O [Cmpd 678, Minoxidil sulphate] | ++
20 | CN1CCN2c3ncccc3Cc3ccccc3C2C1 (stereo not drawn) [Cmpd 679, Mirtazapine] | ++++
21 | Clc1ccc(C(c2ccccc2Cl)C(Cl)Cl)cc1 (stereo not drawn) [Cmpd 681, Mitotane (Lsodren)] | +++

Row | Structure (SMILES) | Compound Myofibroblast Cytotoxicity Activity
22 | O=C1c2c(O)ccc(O)c2C(=O)c2c(NCCNCCO)ccc(NCCNCCO)c21 [Cmpd 682, Mitoxantrone HCl] | +++++
23 | COc1cc(Nc2ncc3c(n2)-c2ccc(Cl)cc2C(c2c(F)cccc2OC)=NC3)ccc1C(=O)O [Cmpd 685, MLN8237 (Alisertib)] | ++++
24 | O=c1c(-n2ccnn2)c[nH]n1-c1cc(N2CCOCC2)ncn1 [Cmpd 687, Molidustat (BAY85-3934)] | +++
25 | C[C@@H]1C[C@H]2[C@@H]3CCC4=CC(=O)C=C[C@]4(C)[C@@]3(Cl)[C@@H](O)C[C@]2(C)[C@@]1(OC(=O)c1ccco1)C(=O)CCl [Cmpd 688, Mometasone furoate] | ++
26 | CC(C)(O)c1ccccc1CC[C@@H](SCC1(CC(=O)O)CC1)c1cccc(/C=C/c2ccc3ccc(Cl)cc3n2)c1 [Cmpd 689, Montelukast Sodium] | +++++
27 | CCCN(CCC)C(=O)C1=Cc2ccc(-c3ccc(C(=O)N4CCCC4)cc3)cc2N=C(N)C1 [Cmpd 690, Motolimod (VTX-2337)] | ++
28 | O[C@H]1[C@H](O)[C@@H](O)[C@H](O)[C@@H](O)[C@H]1O [Cmpd 692, myo-Inositol] | ++++
29 | CC(=O)N[C@@H](CS)C(=O)O [Cmpd 695, N-Acetyl-L-cysteine] | +
30 | CN(C/C=C/c1ccccc1)Cc1cccc2ccccc12 [Cmpd 696, Naftifine HCl] | ++
31 | COc1ccccc1N1CCN(CC(O)COc2cccc3ccccc23)CC1 (stereo not drawn) [Cmpd 697, Naftopidil] | +++
32 | COc1ccc([C@@H]2CC(=O)c3c(O)cc(O[C@@H]4O[C@H](CO)[C@@H](O)[C@H](O)[C@H]4O[C@@H]4O[C@@H](C)[C@H](O)[C@@H](O)[C@H]4O)cc3O2)cc1O [Cmpd 702, Neohesperidin] | ++
33 | NC(=O)c1cccnc1 [Cmpd 705, Niacinamide] | +
34 | COC(=O)C1=C(C)NC(C)=C(C(=O)OCCN(C)Cc2ccccc2)C1c1cccc([N+](=O)[O-])c1 (stereo not drawn) [Cmpd 706, Nicardipine HCl] | +++
35 | CO[C@]12C[C@@H](COC(=O)c3cncc(Br)c3)CN(C)[C@@H]1Cc1cn(C)c3cccc2c13 [Cmpd 707, Nicergoline] | ++
36 | O=C(Nc1ccc([N+](=O)[O-])cc1Cl)c1cc(Cl)ccc1O [Cmpd 708, Niclosamide] | ++
37 | O=C(N/N=C/c1ccc([N+](=O)[O-])o1)c1ccc(O)cc1 [Cmpd 711, Nifuroxazide] | ++
38 | Cc1cn(-c2cc(NC(=O)c3ccc(C)c(Nc4nccc(-c5cccnc5)n4)c3)cc(C(F)(F)F)c2)cn1 [Cmpd 712, Nilotinib monohydrochloride monohydrate] | +++
39 | CC1(C)NC(=O)N(c2ccc([N+](=O)[O-])c(C(F)(F)F)c2)C1=O [Cmpd 714, Nilutamide] | ++++
40 | COC(=O)C1=C(C#N)NC(C)=C(C(=O)OC(C)C)C1c1cccc([N+](=O)[O-])c1 (stereo not drawn) [Cmpd 715, Nilvadipine] | +++
41 | COC(=O)c1ccc2c(c1)NC(=O)/C2=C(\Nc1ccc(N(C)C(=O)CN2CCN(C)CC2)cc1)c1ccccc1 [Cmpd 716, Nintedanib (BIBF 1120)] | ++++
42 | COC(=O)C1=C(C)NC(C)=C(C(=O)OCC(C)C)C1c1ccccc1[N+](=O)[O-] (stereo not drawn) [Cmpd 717, Nisoldipine] | +++

Row | Structure (SMILES) | Compound Myofibroblast Cytotoxicity Activity
43 | CC(=O)Oc1ccccc1C(=O)Nc1ncc([N+](=O)[O-])s1 [Cmpd 718, Nitazoxanide] | +++
44 | CCOC(=O)C1=C(C)NC(C)=C(C(=O)OC)C1c1cccc([N+](=O)[O-])c1 (stereo not drawn) [Cmpd 719, Nitrendipine] | +++
45 | O=C1CN(/N=C/c2ccc([N+](=O)[O-])o2)C(=O)N1 [Cmpd 720, Nitrofurantoin] | ++++
46 | CC(Cc1ccc(O)c(O)c1)C(C)Cc1ccc(O)c(O)c1 (stereo not drawn) [Cmpd 722, Nordihydroguaiaretic acid] | +++
47 | CNCCC=C1c2ccccc2CCc2ccccc21 [Cmpd 723, Nortriptyline (hydrochloride)] | ++
48 | CO[C@@H]1[C@@H](OC(N)=O)[C@@H](O)[C@H](Oc2ccc3c(O)c(NC(=O)c4ccc(O)c(CC=C(C)C)c4)c(=O)oc3c2C)OC1(C)C [Cmpd 724, Novobiocin Sodium] | ++++
49 | CCCCCCCC(=O)O [Cmpd 729, Octanoic acid] | ++
50 | CCCCCCCC/C=C\CCCCCCCC(=O)O [Cmpd 733, Oleic Acid] | +++
51 | C=CC(=O)Nc1cccc(Oc2nc(Nc3ccc(N4CCN(C)CC4)cc3)nc3ccsc23)c1 [Cmpd 735, Olmutinib (HM61713, BI1482694)] | ++++
52 | COc1ccc2[n-]c([S+]([O-])Cc3ncc(C)c(OC)c3C)nc2c1.[Na+] (stereo not drawn) [Cmpd 737, Omeprazole Sodium] | ++
53 | CCCCCCCCOc1ccccc1C(=O)Nc1ccc(C(=O)OCC[N+](C)(CC)CC)cc1 [Cmpd 741, Otilonium Bromide] | +++++
54 | Cc1ccccc1C(=O)O [Cmpd 742, o-Toluic acid] | ++
55 | CN(C(=O)CN(CCO)CC(=O)N(C)C(C)(C)Cc1ccccc1)C(C)(C)Cc1ccccc1 [Cmpd 745, Oxethazaine] | +++++
56 | CCN(CC)CC#CCOC(=O)C(O)(c1ccccc1)C1CCCCC1 (stereo not drawn) [Cmpd 747, Oxybutynin] | ++
57 | C1=N/C2=N/c3ccc(OCCN4CCCC4)c(c3)COC/C=C/COCc3cccc(c3)C(=C1)N2 [Cmpd 751, Pacritinib (SB1518)] | +++
58 | CC(=O)c1c(C)c2cnc(Nc3ccc(N4CCNCC4)cn3)nc2n(C2CCCC2)c1=O.O=S(=O)(O)CCO [Cmpd 753, Palbociclib (PD0332991) Isethionate] | +++++
59 | CCCCCCCCCCCCCCCC(=O)OC [Cmpd 754] | +++
60 | NCCC(O)(P(=O)([O-])O)P(=O)([O-])O.[Na+].[Na+] [Cmpd 756, Pamidronate Disodium] | +++
61 | C#CCN(C)Cc1ccccc1 [Cmpd 757, Pargyline (hydrochloride)] | ++
62 | Fc1ccc([C@@H]2CCNC[C@H]2COc2ccc3c(c2)OCO3)cc1 [Cmpd 758, Paroxetine HCl] | +++
63 | CS(=O)(=O)O.C[C@H]1COc2c(C3(N)CC3)c(F)cc3c(=O)c(C(=O)O)cn1c23 [Cmpd 760, Pazufloxacin mesylate] | +++
